Measurements: publication PMC11876601 (Molecular Systems Biology, 2025)
Values joined by “and” are separate entries in the source; they are usually repeats but may differ in a detail not shown here. Equal values may be shown once. Read-outs that look alike come from different tables or passages of the source.

Test system: AsPC-1 cells
Experiment: Cell proliferation assay, chemodrug + ATR inhibitor (Incucyte confluence, 72 h);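 note: underlying read-out for every value is AsPC-1 confluence after 72 h incubation at 37 °C and 5% CO2, divided by that well's starting confluence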
Details: for Curve bottom / Curve slope / Curve top / EC50 / pEC50: AsPC-1; for Ratio: Response / Response vehicle (mean)
[1] = Experiment GEM (no ATRi), single replicates R1-R3
[2] = Experiment GEM+ATRi_dose1, single replicates R1-R3
[3] = Experiment GEM+ATRi_dose2, single replicates R1-R3
[4] = Experiment GEM+ATRi_dose3, single replicates R1-R3
[5] = Drug 0 nM + ATRi 3 nM (ATRi alone, GEM+ATRi_dose1 series), replicates R1-R3
[6] = Drug 0 nM + ATRi 10 nM (ATRi alone, GEM+ATRi_dose2 series), replicates R1-R3
[7] = Drug 0 nM + ATRi 30 nM (ATRi alone, GEM+ATRi_dose3 series), replicates R1-R3
[8] = Drug 1 nM + ATRi 3 nM (GEM+ATRi_dose1), replicates R1-R3
[9] = Drug 1 nM + ATRi 10 nM (GEM+ATRi_dose2), replicates R1-R3
[10] = Drug 1 nM + ATRi 30 nM (GEM+ATRi_dose3), replicates R1-R3
[11] = Drug 1 nM alone, ATRi 0 nM (experiment 'GEM'), replicates R1-R3
[12] = Drug 3 nM + ATRi 3 nM (GEM+ATRi_dose1), replicates R1-R3
[13] = Drug 3 nM + ATRi 10 nM (GEM+ATRi_dose2), replicates R1-R3
[14] = Drug 3 nM + ATRi 30 nM (GEM+ATRi_dose3), replicates R1-R3
[15] = Drug 3 nM alone, ATRi 0 nM (experiment 'GEM'), replicates R1-R3
[16] = Drug 10 nM + ATRi 3 nM (GEM+ATRi_dose1), replicates R1-R3
[17] = Drug 10 nM + ATRi 10 nM (GEM+ATRi_dose2), replicates R1-R3
[18] = Drug 10 nM + ATRi 30 nM (GEM+ATRi_dose3), replicates R1-R3
[19] = Drug 10 nM alone, ATRi 0 nM (experiment 'GEM'), replicates R1-R3
[20] = Drug 30 nM + ATRi 3 nM (GEM+ATRi_dose1), replicates R1-R3
[21] = Drug 30 nM + ATRi 10 nM (GEM+ATRi_dose2), replicates R1-R3
[22] = Drug 30 nM + ATRi 30 nM (GEM+ATRi_dose3), replicates R1-R3
[23] = Drug 30 nM alone, ATRi 0 nM (experiment 'GEM'), replicates R1-R3
[24] = Drug 100 nM + ATRi 3 nM (GEM+ATRi_dose1), replicates R1-R3
[25] = Drug 100 nM + ATRi 10 nM (GEM+ATRi_dose2), replicates R1-R3
[26] = Drug 100 nM + ATRi 30 nM (GEM+ATRi_dose3), replicates R1-R3
[27] = Drug 100 nM alone, ATRi 0 nM (experiment 'GEM'), replicates R1-R3
[28] = Drug 300 nM + ATRi 3 nM (GEM+ATRi_dose1), replicates R1-R3
[29] = Drug 300 nM + ATRi 10 nM (GEM+ATRi_dose2), replicates R1-R3
[30] = Drug 300 nM + ATRi 30 nM (GEM+ATRi_dose3), replicates R1-R3
[31] = Drug 300 nM alone, ATRi 0 nM (experiment 'GEM'), replicates R1-R3
[32] = Drug 1000 nM + ATRi 3 nM (GEM+ATRi_dose1), replicates R1-R3
[33] = Drug 1000 nM + ATRi 10 nM (GEM+ATRi_dose2), replicates R1-R3
[34] = Drug 1000 nM + ATRi 30 nM (GEM+ATRi_dose3), replicates R1-R3
[35] = Drug 1000 nM alone, ATRi 0 nM (experiment 'GEM'), replicates R1-R3
[36] = Drug 3000 nM + ATRi 3 nM (GEM+ATRi_dose1), replicates R1-R3
[37] = Drug 3000 nM + ATRi 10 nM (GEM+ATRi_dose2), replicates R1-R3
[38] = Drug 3000 nM + ATRi 30 nM (GEM+ATRi_dose3), replicates R1-R3
[39] = Drug 3000 nM alone, ATRi 0 nM (experiment 'GEM'), replicates R1-R3
[40] = chemodrug 30 nM alone (ATRi 0 nM)
[41] = chemodrug 100 nM alone (ATRi 0 nM)
[42] = chemodrug 300 nM alone (ATRi 0 nM)
[43] = chemodrug 1000 nM alone (ATRi 0 nM)
[44] = chemodrug 3000 nM alone (ATRi 0 nM)

Protocol: Cells were seeded at 5000 cells/well into 96-well flat bottom plates (Eppendorf) and allowed to attach overnight. […] Cells were incubated for 72 h at 37 °C and 5% CO2. Cell confluence readouts at 72 h were either normalized to their initial confluence using the Incucyte software (AsPC-1) or used without prior normalization (all others). […] Each experiment was performed in triplicates, the data was plotted as mean ± standard deviation (s.d.).

N.N.[Cl][Pt][Cl] [Cisplatin]
Curve bottom [1]: 1.04 and 1.01 and 1.00 | Curve slope [1]: 1.30 and 2.18 and 1.82 | Curve top [1]: 0.20 and 0.35 and 0.27 | EC50 [1]: 513 nM and 218 nM and 302 nM | pEC50 [1]: 6.29 and 6.66 and 6.52 | Curve bottom [2]: 1.05 and 1.02 and 1.03 | Curve slope [2]: 1.41 and 1.64 and 1.76 | Curve top [2]: 0.25 and 0.33 and 0.27 | EC50 [2]: 172 nM and 118 nM and 151 nM | pEC50 [2]: 6.76 and 6.93 and 6.82 | Curve bottom [3]: 1.03 and 1.00 and 1.02 | Curve slope [3]: 1.60 and 1.79 and 1.21 | Curve top [3]: 0.28 and 0.31 and 0.26 | EC50 [3]: 36.4 nM and 34.9 nM and 37.1 nM | pEC50 [3]: 7.44 and 7.46 and 7.43 | Curve bottom [4]: 0.90 and 0.95 and 0.88 | Curve slope [4]: 0.65 and 0.81 and 0.69 | Curve top [4]: 0.22 and 0.29 and 0.23 | EC50 [4]: 6.62 nM and 4.98 nM and 7.67 nM | pEC50 [4]: 8.18 and 8.30 and 8.12 | Response [5]: 86.95 and 90.22 and 92.73 | Response [6]: 86.95 and 90.22 | Response [7]: 75.87 and 84.36 | Response [8]: 87.64 and 91.58 and 92.37 | Response [9]: 86.97 and 90.31 | Response [10]: 68.28 and 77.94 | Response [11]: 87.69 and 92.23 | Response [12]: 91.78 and 94.40 and 93.95 | Response [13]: 85.95 and 90.04 | Response [14]: 52.30 and 58.04 | Response [15]: 89.38 and 90.87 | Response [16]: 89.09 and 93.32 and 91.50 | Response [17]: 81.41 and 84.65 | Response [18]: 41.30 and 46.95 | Response [19]: 87.15 and 91.05 | Response [20]: 84.14 and 83.47 and 86.69 | Response [21]: 60.15 and 63.62 | Response [22]: 36.88 and 38.31 | Response [23]: 87.92 and 89.82 | Response [24]: 67.31 and 66.59 and 71.27 | Response [25]: 33.79 and 36.06 | Response [26]: 30.17 and 37.05 | Response [27]: 79.92 and 81.64 | Response [28]: 43.01 and 39.79 and 38.91 | Response [29]: 30.09 and 31.69 | Response [30]: 22.83 and 27.53 | Response [31]: 65.38 and 51.74 | Response [32]: 27.32 and 30.30 and 27.51 | Response [33]: 23.88 and 28.00 | Response [34]: 20.74 and 24.11 | Response [35]: 37.94 and 32.34 | Response [36]: 22.35 and 31.11 and 24.18 | Response [37]: 21.92 and 27.23 and 22.65 | Response [38]: 19.23 and 26.92 | Response [39]: 23.81 and 32.93 | Ratio [5]: 1.02 and 1.00 and 1.03 | Ratio [6]: 1.02 and 1.00 | Ratio [7]: 0.89 and 0.93 | Ratio [8]: 1.03 and 1.01 and 1.02 | Ratio [9]: 1.02 and 1.00 | Ratio [10]: 0.80 and 0.86 | Ratio [11]: 1.03 and 1.02 | Ratio [12]: 1.08 and 1.04 | Ratio [13]: 1.01 and 1.00 | Ratio [14]: 0.61 and 0.64 | Ratio [15]: 1.05 and 1.00 | Ratio [16]: 1.05 and 1.03 and 1.01 | Ratio [17]: 0.96 and 0.94 | Ratio [18]: 0.49 and 0.52 | Ratio [19]: 1.02 and 1.01 | Ratio [20]: 0.99 and 0.92 and 0.96 | Ratio [21]: 0.71 and 0.70 | Ratio [22]: 0.43 and 0.42 | Ratio [23]: 1.03 and 0.99 | Ratio [24]: 0.79 and 0.74 | Ratio [25]: 0.40 | Ratio [26]: 0.35 and 0.41 | Ratio [27]: 0.94 and 0.90 | Ratio [28]: 0.51 and 0.44 and 0.43 | Ratio [29]: 0.35 | Ratio [30]: 0.27 and 0.30 | Ratio [31]: 0.77 and 0.57 | Ratio [32]: 0.32 and 0.34 and 0.31 | Ratio [33]: 0.28 and 0.31 | Ratio [34]: 0.24 and 0.27 | Ratio [35]: 0.45 and 0.36 | Ratio [36]: 0.26 and 0.34 and 0.27 | Ratio [37]: 0.26 and 0.30 and 0.25 | Ratio [38]: 0.23 and 0.30 | Ratio [39]: 0.28 and 0.36 | Ratio (Response / Response vehicle (mean)) (chemodrug 1 nM + ATRi 10 nM): 1.00 | Response (chemodrug 1 nM + ATRi 10 nM): 89.91 | Ratio (Response / Response vehicle (mean)) (chemodrug 1 nM + ATRi 30 nM): 0.80 | Response (chemodrug 1 nM + ATRi 30 nM): 71.79 | Ratio (Response / Response vehicle (mean)) (chemodrug 1 nM alone (ATRi 0 nM)): 1.02 | Ratio (Response / Response vehicle (mean)) (chemodrug 3 nM + ATRi 10 nM): 0.99 | Response (chemodrug 3 nM + ATRi 10 nM): 89.48 | Ratio (Response / Response vehicle (mean)) (chemodrug 3 nM + ATRi 30 nM): 0.63 | Response (chemodrug 3 nM + ATRi 30 nM): 57.06 | Ratio (Response / Response vehicle (mean)) (chemodrug 3 nM alone (ATRi 0 nM)): 1.00 | Ratio (Response / Response vehicle (mean)) (chemodrug 10 nM + ATRi 10 nM): 0.89 | Response (chemodrug 10 nM + ATRi 10 nM): 80.53 | Ratio (Response / Response vehicle (mean)) (chemodrug 10 nM + ATRi 30 nM): 0.51 | Response (chemodrug 10 nM + ATRi 30 nM): 45.87 | Ratio (Response / Response vehicle (mean)) (chemodrug 10 nM alone (ATRi 0 nM)): 0.99 | Ratio (Response / Response vehicle (mean)) (chemodrug 30 nM + ATRi 10 nM): 0.69 | Response (chemodrug 30 nM + ATRi 10 nM): 62.02 | Ratio (Response / Response vehicle (mean)) (chemodrug 30 nM + ATRi 30 nM): 0.43 | Response (chemodrug 30 nM + ATRi 30 nM): 38.92 | Ratio (Response / Response vehicle (mean)) [40]: 1.03 | Response [40]: 92.93 | Ratio (Response / Response vehicle (mean)) (chemodrug 100 nM + ATRi 10 nM): 0.43 | Response (chemodrug 100 nM + ATRi 10 nM): 39.16 | Ratio (Response / Response vehicle (mean)) (chemodrug 100 nM + ATRi 30 nM): 0.35 | Response (chemodrug 100 nM + ATRi 30 nM): 31.50 | Ratio (Response / Response vehicle (mean)) [41]: 0.90 | Response [41]: 81.28 | Ratio (Response / Response vehicle (mean)) (chemodrug 300 nM + ATRi 10 nM): 0.31 | Response (chemodrug 300 nM + ATRi 10 nM): 28.30 | Ratio (Response / Response vehicle (mean)) (chemodrug 300 nM + ATRi 30 nM): 0.27 | Response (chemodrug 300 nM + ATRi 30 nM): 23.96 | Ratio (Response / Response vehicle (mean)) [42]: 0.65 | Response [42]: 58.52 | Ratio (Response / Response vehicle (mean)) (chemodrug 1000 nM + ATRi 10 nM): 0.29 | Response (chemodrug 1000 nM + ATRi 10 nM): 25.88 | Ratio (Response / Response vehicle (mean)) (chemodrug 1000 nM + ATRi 30 nM): 0.26 | Response (chemodrug 1000 nM + ATRi 30 nM): 23.54 | Ratio (Response / Response vehicle (mean)) [43]: 0.34 | Response [43]: 30.70 | Ratio (Response / Response vehicle (mean)) (chemodrug 3000 nM + ATRi 30 nM): 0.23 | Response (chemodrug 3000 nM + ATRi 30 nM): 20.88 | Ratio (Response / Response vehicle (mean)) [44]: 0.29 | Response [44]: 26.17 | sensitization of AsPC-1 cells to the chemodrug by Elimusertib (chemodrug + three sub-EC50 doses of Elimusertib): sensitized | EC50 (read-out: EC50 mean, Experiment GEM (no ATRi), mean of R1-R3, repeated in each replicate line): 344 nM | EC50 (read-out: EC50 mean, Experiment GEM+ATRi_dose1, mean of R1-R3, repeated in each replicate line): 147 nM | EC50 (read-out: EC50 mean, Experiment GEM+ATRi_dose2, mean of R1-R3, repeated in each replicate line): 36.1 nM | EC50 (read-out: EC50 mean, Experiment GEM+ATRi_dose3, mean of R1-R3, repeated in each replicate line): 6.42 nM
